Laboratory results reported in patent publication US11064701B2, “Benzoxaborole compounds” (BASF SE, priority 2016, dated 2021).

Assays:
Experiment in all cases: greenhouse post-emergence herbicidal test
Assay type in all cases: in vivo
Settings in all cases: application rate 2 kg/ha, post-emergence method; scale 0 to 100 (100 = complete destruction)
[1] = tested on: Abutilon theophrasti
Text: (§1) The seeds of the test plants were sown separately for each species. For the post-emergence treatment, the test plants were first grown to a height of 3 to 8 cm, depending on the plant habit, and only then treated with the active ingredients which had been suspended or emulsified in water. For this purpose, the test plants were either sown directly and grown in the same containers, or they were first grown separately as seedlings and transplanted into the test containers a few days prior to treatment. Depending on the species, the plants were kept at 10-25° C. or 20-35° C., respectively. The test period extended over 2 to 4 weeks. During this time, the plants were tended, and their response to the individual treatments was evaluated. Evaluation was carried out using a scale from 0 to 100. 100 means no emergence of the plants, or complete destruction of at least the aerial moieties, and 0 means no damage, or normal course of growth. A moderate herbicidal activity is given at values of at least 60, a good herbicidal activity is given at values of at least 70, and a very good herbicidal activity is given at values of at least 85. The plants used in the greenhouse experiments were of the following species: [table]

[2] = tested on: Amaranthus retroflexus
Text: as §1

[3] = tested on: Setaria viridis
Text: as §1

[4] = tested on: Alopecurus myosuroides
Text: as §1

[5] = tested on: Avena fatua
Text: as §1

[6] = tested on: Echinocloa crus-galli
Text: as §1

Row | SMILES | herbicidal activity against Abutilon theophrasti [1] | herbicidal activity against Amaranthus retroflexus [2] | herbicidal activity against Setaria viridis [3] | herbicidal activity against Alopecurus myosuroides [4] | herbicidal activity against Avena fatua [5] | herbicidal activity against Echinocloa crus-galli [6]
1 | COC(=O)C(C)Oc1c(F)cc2c(c1F)B(O)OC2 (stereo not shown) [I-35] | 100% | 100% | 98% | – | – | –
2 | O=C(O)COc1cc2c(cc1F)COB2O [I-6] | 100% | 100% | 100% | 90% | 98% | 98%
3 | O=C(O)COc1c(F)c(F)c2c(c1F)B(O)OC2 [I-33] | 98% | 100% | 98% | – | – | –
4 | COC(=O)COc1cc2c(cc1F)COB2O [I-5] | 100% | 100% | 98% | 98% | 98% | 98%
5 | O=C(O)COc1cc2c(cc1Cl)COB2O [I-8] | 100% | 100% | 95% | 98% | 98% | 100%
6 | COC(=O)C(Oc1cc2c(cc1F)COB2O)C(=O)OC [I-10] | – | 90% | 95% | – | – | –
7 | O=C(O)COc1c(Cl)cc2c(c1Cl)B(O)OC2 [I-15] | – | 100% | 90% | – | – | 85%
8 | O=C(O)CCCOc1cc2c(cc1F)COB2O [I-25] | – | 95% | 95% | – | – | –
9 | O=C(O)COc1c(F)cc2c(c1F)B(O)OC2 [I-24] | 100% | 100% | 95% | – | – | –
10 | COC(=O)CS(=O)(=O)c1cc2c(cc1F)COB2O [I-42] | 100% | 100% | – | – | – | –
11 | O=C(O)CS(=O)(=O)c1cc2c(cc1F)COB2O [I-37] | – | 100% | – | – | – | –
12 | CCOC(=O)C(C)(C)Oc1ccc2c(c1)B(O)OC2 [I-2] | – | 100% | – | – | – | –
13 | CCOC(=O)C(F)Oc1ccc2c(c1)B(O)OC2 (stereo not shown) [I-26] | 90% | 100% | 85% | – | – | –
14 | O=C(O)COc1ccc2c(c1)B(O)OC2 [I-1] | 90% | 100% | 100% | – | 90% | 100%
15 | CC(C)(Oc1ccc2c(c1)B(O)OC2)C(=O)O [I-4] | 85% | – | – | – | – | 85%
16 | CC(Oc1c(F)cc2c(c1F)B(O)OC2)C(=O)O (stereo not shown) [I-30] | 95% | 100% | – | 85% | – | –
17 | COC(=O)COc1c(F)c(F)c2c(c1F)B(O)OC2 [I-39] | – | 100% | 100% | – | – | –
18 | COC(=O)COc1cc2c(cc1Cl)COB2O [I-7] | 100% | 100% | 100% | 95% | 98% | 100%
19 | COC(=O)COc1c(F)cc2c(c1F)B(O)OC2 [I-29] | – | 100% | 100% | – | – | 95%
20 | COC(=O)CSc1cc2c(cc1F)COB2O [I-28] | 100% | 100% | 100% | – | – | –
21 | O=C(O)CSc1cc2c(cc1F)COB2O [I-22] | 100% | 100% | 100% | – | – | –
22 | COC(=O)COc1ccc2c(c1)B(O)OC2 [I-3] | 100% | 100% | 100% | – | 90% | 98%
